Laboratory results from paper PMC5515971, “Utility of spherical human liver microtissues for prediction of clinical drug-induced liver injury” (Archives of Toxicology, 2017).
Where two headings read alike, the source gives them in different places.

Key:
[1] = tested on: 3D human liver microtissues (hLiMT); test: Cytotoxicity (cellular ATP, CellTiter-Glo 2.0) in 3D human liver microtissues, 14 day repeat-dose treatment; conditions: Homo sapiens, 336 h
[2] = tested on: 3D human liver microtissues (hLiMT); test: alpha-GST release into hLiMT supernatant (ELISA); type: cell-based; conditions: 336 h, 14 days, release into medium, read-out: IC50 (α-GST assay)
Protocol: Supernatants from single hLiMT (in triplicates) were analysed for α-GST content using EKF’s α-GST ELISA assay. Briefly, 50 μL of the thawed cell-culture supernatants from single microtissues was transferred into a new v-bottom plate and diluted with 60 μl sample diluent buffer. From this dilution, 100 μL were transferred to the microassay strips. The ELISA was otherwise performed according to the manufacturer’s instructions.

[3] = tested on: 3D human liver microtissues (hLiMT); test: miR-122 levels in hLiMT supernatant (qRT-PCR); type: cell-based; conditions: 5 days exposure
Protocol: miRNA extraction miRNA was extracted using a miRNeasy kit, following the manufacturer's instructions, and as described by Starkey et al. 2016 with minor modifications. Thirty-eight µL thawed hLiMT supernatant was mixed with 162 µL nuclease-free water and 700 µL QIAzol reagent and then incubated for 5 min at room temperature. Chloroform (100 µL) was added, the samples shaken vigorously for 15 sec and then centrifuged at 12,000 g for 15 min at 4 °C. The supernatant was then mixed with 500 µL 70% ethanol and transferred to a miRNeasy minispin column. The column was centrifuged at >8000 g for 15 sec. The elute was then purified using a MinElute kit
miRNA purification The small RNA elution mixture was applied to the MinElute column 700 µL at a time. […]
qRT-PCR One µl thawed cDNA was mixed with 19 µl miR-122 or cel-lin4 PCR reaction master mix containing 1 µL Taqman^TM miR-122 or cel-lin4 primer small RNA assay (20X), 10 µl Taqman^TM universal PCR master mix II (2X) and 8 µL nuclease free water. Levels of miRNA were measured by the fluorescent signal produced from the Taqman probes on an ABI Prism 7000 (Applied Biosystems). miRNA levels were normalized to levels of cel-lin4 miRNA. Relative miRNA production was determined with the ΔCt method and reported as 2−ΔCt, where Ct is the threshold cycle. Differences in miRNA concentration were expressed as fold changes relative to control.

[4] = tested on: 3D human liver microtissues (hLiMT); test: Cytotoxicity (cellular ATP) in 3D human liver microtissues, 5-6 days treatment; type: cell-based; conditions: Homo sapiens; hLiMT, 5/6 days, ATP content; read-out: IC50 SHORT;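 also: Hanging-drop spheroids, seven-point dilution series, re-dosed on day 3, CellTiter-Glo 2.0 luminescence, normalized to 0.5 or 1% DMSO vehicle controls on the same plate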
[5] = ref Chen et al 2016 / Chen et al 2011; cited from earlier work
[6] = tested on: 3D human liver microtissues (hLiMT); test: HMGB1 levels in hLiMT supernatant (ELISA); type: cell-based; conditions: 5 days exposure
Protocol: Supernatants from single hLiMT (in triplicates) were analysed for HMGB1 content using IBLs ELISA assay using the high sensitive range test procedure. Briefly, 50 μL of the thawed cell-culture supernatants from single microtissues or diluted standards were incubated in the microtiter plate along with 50 μL of the diluent buffer for 20-24 h at 37 °C in the dark. The plate was then washed 5 times with 400 µL diluted wash buffer (1:5), blotted dry and 100 µL enzyme conjugate added. After incubation in the dark for 2 h at 25 °C the plate was washed 5 times with 400 µL diluted wash buffer, blotted dry and then 100 µL colour solution added. The plate was incubated for a further 30 min at room temperature prior to the addition of 100 µL stop solution. The absorbance was then determined at 450 nm using an EnVision® plate reader (PerkinElmer, Waltham, MA, USA) within 60 min. The concentration of HMGB1 in the samples was read off the high sensitivity range standard curve obtained from plotting the OD of the standards against the concentration (ng/L).

[7] = cited from earlier work; for DILI category: clinical, from literature and product labels
[8] = tested on: primary human hepatocytes (PHH); test: Cytotoxicity (cellular ATP, CellTiter-Glo) in 2D plated primary human hepatocytes, 48 h treatment; type: cell-based; conditions: Hepatocyte; 2D primary human hepatocytes (lot IZT), 48 h treatment, total cellular ATP content; read-out: Geomean IC50;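 also: 384-well plates, luminescence read-out, normalized to vehicle wells with 1% DMSO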
[9] = cited from earlier work
[10] = design: method as in Russmann et al. [2005]; conditions: patients; ref Russmann et al. [2005]; cited from earlier work
[11] = Hepatocyte, read-out: Geomean IC50 [µM]
[12] = Table 1, ref Garside et al. (2014)
[13] = clinical DILI severity category, 1-5
[14] = table S-4, ref Garside et al. 2014
[15] = human Cmax total, used for IC50/Cmax
[16] = human total plasma Cmax, ref literature values

SMILES	IC50 ([1]; read-out: IC50 (ATP-assay)) [µM]	IC50 ([1]; read-out: IC50 LONG) [µM]	IC50 [1, 11] [µM]	IC50 [2] [µM]	release of miR-122 [3]	IC50 [4] [µM]	FDA DILI Classification DILI severity score [5]	LTKB DILI classification [5]	release of HMGB1 [6]	DILI severity category [7, 12]	DILI severity category [7, 13] [Low Clinical DILI Concern]	DILI category ([7]; ref Garside et al. 2014) [Low Clinical DILI Concern]	DILI severity category [7, 14]	DILI severity category ([7]; table S-5, ref Garside et al. 2014) [Low Clinical DILI Concern]	IC50 [8] [µM]	Cmax [9, 15] [nM]	Cmax [9, 16] [nM]	mild, transient elevations of plasma enzyme levels [10]
CN(C)CCCN1c2ccccc2Sc2ccc(Cl)cc21 [Chlorpromazine]	7	7.1	~7.4	45.4	dose-dependent release	10.9	2	less DILI concern	dose-dependent release	3: Low clinical DILI concern (N = 23)	3.	3.	3	3.	19.2	940	940	–
CC(C)c1nc(N(C)S(C)(=O)=O)nc(-c2ccc(F)cc2)c1/C=C/[C@@H](O)C[C@@H](O)CC(=O)O [Rosuvastatin]	–	–	7.8	–	–	34.2	3	less DILI concern	–	3: Low clinical DILI concern (N = 23)	3.	3.	3	–	> 100	10	10	1–3%
